Results reported in US5760248A, “Tachykinin antagonists” (A.Menarini Industrie Farmaceutiche Riunite S.r.l., priority 1993, dated 1998).

Target: T1, NK1 receptor (Homo sapiens, UniProt P25103)
T1 construct: endogenous in cells; host or cells: IM9 cells (intact)
Assay: [3H] SP binding assay in IM9 Cell Line (intact cells)
Protocol: Assessment of biological activity (antagonist activity on NK1 receptor) of compounds of this invention was performed by means of the following binding and functional assays:
[3H] SP binding assay in IM9 Cell Line
Binding assay was performed with intact cells as described by Goso et al (Eur.J.Pharmacol. 254,221,1994).

T1 sequence (P25103 whole entry): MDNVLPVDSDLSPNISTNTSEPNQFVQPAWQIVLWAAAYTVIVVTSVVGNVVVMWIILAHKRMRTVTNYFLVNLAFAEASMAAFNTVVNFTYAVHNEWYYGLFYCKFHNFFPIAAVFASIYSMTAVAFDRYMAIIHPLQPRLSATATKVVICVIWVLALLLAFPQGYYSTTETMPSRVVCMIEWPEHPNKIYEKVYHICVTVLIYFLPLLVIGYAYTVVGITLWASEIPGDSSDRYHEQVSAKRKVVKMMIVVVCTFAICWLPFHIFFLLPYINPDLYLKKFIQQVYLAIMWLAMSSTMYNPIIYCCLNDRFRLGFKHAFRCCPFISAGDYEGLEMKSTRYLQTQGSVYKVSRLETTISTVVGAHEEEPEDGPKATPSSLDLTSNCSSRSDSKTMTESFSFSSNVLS

SMILES	pKi (Substance P antagonism Results)
O=C(Cc1ccccc1)N[C@H](Cc1ccccc1)NC(=O)C1CCCCC1NC(=O)c1c[nH]c2ccccc12 (stereo partly drawn) [2 (fast), 1-{N-(1(H)indol-3-yl-carbonyl) (1R,2S)-2-aminocyclohexanecarbonyl}-amino-1-(phenylacetyl)amino-2-phenyl-ethane]	< 6
CN(C(=O)Cc1ccc(Cl)cc1)[C@H](Cc1ccc2ccccc2c1)NC(=O)C1CCCCC1NC(=O)c1c[nH]c2ccccc12 (stereo partly drawn) [11 (fast), 1-{N-(1(H)indol-3-yl-carbonyl)(1R,2S)-2-aminocyclohexanecarbonyl}-amino-1-(N-methyl-N-4-chlorophenylacetyl)amino-2(2-naphthyl)ethane]	8.4
O=C(NC1CCCCC1C(=O)N[C@H](COCc1cc(C(F)(F)F)cc(C(F)(F)F)c1)Cc1ccc2ccccc2c1)c1c[nH]c2ccccc12 (stereo partly drawn) [4 (fast)]	< 5
O=C(NC1CCCCC1C(=O)N[C@@H](Cc1ccccc1)C(=O)OCc1ccccc1)c1c[nH]c2ccccc12 (stereo partly drawn) [1 (fast)]	< 6

Continued, values first:

pKi (Substance P antagonism Results)	SMILES
8.4	CN(C(=O)Cc1ccccc1)[C@H](Cc1ccc2ccccc2c1)NC(=O)C1CCCCC1NC(=O)c1c[nH]c2ccccc12 (stereo partly drawn) [3 (fast), 1-{N-(1(H)indol-3-yl-carbonyl) (1R,2S)-2-aminocyclohexanecarbonyl}-amino-1-(N-methyl-N-phenylacetyl)amino-2(2-naphthyl)ethane]
8.7	Cc1ccc(CC(=O)N(C)[C@H](Cc2ccc3ccccc3c2)NC(=O)C2CCCCC2NC(=O)c2c[nH]c3ccccc23)cc1 (stereo partly drawn) [12 (fast), 1-{N-(1(H)indol-3-yl-carbonyl)(1R,2S)-2-aminocyclohexanecarbonyl}-amino-1-(N-methyl-N-4-methylphenylacetyl)amino-2(2-naphthyl)ethane]
< 5	CN(C(=O)Cc1ccccc1)[C@H](Cc1ccc2ccccc2c1)NC(=O)C1CCCCC1NC(=O)c1c[nH]c2ccccc12 (stereo partly drawn) [3 (slow), 1-{N-(1(H)indol-3-yl-carbonyl)(1S,2R)-2-aminocyclohexanecarbonyl}-amino-1-(N-methyl-N-phenylacetyl) amino-2(2-naphthyl)ethane]
< 5	C[C@H](C(=O)N(C)[C@H](Cc1ccc2ccccc2c1)NC(=O)C1CCCCC1NC(=O)c1c[nH]c2ccccc12)c1ccccc1 (stereo partly drawn) [9 (fast), 1-{N-(1(H)indol-3-yl-carbonyl)(1R,2S)-2-aminocyclohexanecarbonyl}-amino-1-(N-methyl-N-((S)2-phenylpropionyl))amino-2-(2-naphthyl)ethane]
8.7	C[C@@H](C(=O)N(C)[C@H](Cc1ccc2ccccc2c1)NC(=O)C1CCCCC1NC(=O)c1c[nH]c2ccccc12)c1ccccc1 (stereo partly drawn) [10 (fast), 1-{N-(1(H)indol-3-yl-carbonyl)(1R,2S)-2-aminocyclohexane-carbonyl}-amino-1-(N-methyl-N-((R)2-phenylpropionyl))Ammino-2-(2-naphthyl)ethane]
